Measured values from US20140171431A1, “AZOLE HETEROCYCLIC COMPOUND, PREPARATION METHOD, PHARMACEUTICAL COMPOSITION AND USE” (priority 2011, published 2014).
Read-outs that look alike come from different tables or passages of the source.

Assays:
Lp-PLA2 in rabbit serum = target: T1, Lp-PLA2 in rabbit serum (Oryctolagus cuniculus, UniProt G1SE06); assay: In vitro inhibitory activity towards the enzyme Lp-PLA2 in rabbit serum, [3H]PAF substrate; format: biochemical; settings: for inhibition at 0.1 µM: 100 nM
T1 construct: from tissue; host or cells: rabbit serum
T1 sequence (G1SE06 22-423): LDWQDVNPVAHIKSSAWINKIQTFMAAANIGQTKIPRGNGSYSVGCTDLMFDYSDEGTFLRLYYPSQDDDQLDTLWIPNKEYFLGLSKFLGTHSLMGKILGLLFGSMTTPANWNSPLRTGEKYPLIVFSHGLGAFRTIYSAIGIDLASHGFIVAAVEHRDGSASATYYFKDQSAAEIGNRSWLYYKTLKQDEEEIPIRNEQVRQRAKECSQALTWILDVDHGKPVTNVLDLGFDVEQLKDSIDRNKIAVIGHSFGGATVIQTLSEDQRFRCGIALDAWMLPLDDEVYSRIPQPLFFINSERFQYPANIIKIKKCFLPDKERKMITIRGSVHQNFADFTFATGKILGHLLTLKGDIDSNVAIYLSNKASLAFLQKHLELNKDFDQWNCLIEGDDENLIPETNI

Lp-PLA2 in human serum = target: T2, Lp-PLA2 in human serum (Homo sapiens, UniProt Q13093); assay: In vitro inhibitory activity towards the enzyme Lp-PLA2 in human serum, [3H]PAF substrate; format: biochemical; settings: for inhibition at 0.01 µM: 10 nM; for inhibition at 0.1 µM: 100 nM
T2 construct: from tissue
T2 sequence (Q13093 22-441): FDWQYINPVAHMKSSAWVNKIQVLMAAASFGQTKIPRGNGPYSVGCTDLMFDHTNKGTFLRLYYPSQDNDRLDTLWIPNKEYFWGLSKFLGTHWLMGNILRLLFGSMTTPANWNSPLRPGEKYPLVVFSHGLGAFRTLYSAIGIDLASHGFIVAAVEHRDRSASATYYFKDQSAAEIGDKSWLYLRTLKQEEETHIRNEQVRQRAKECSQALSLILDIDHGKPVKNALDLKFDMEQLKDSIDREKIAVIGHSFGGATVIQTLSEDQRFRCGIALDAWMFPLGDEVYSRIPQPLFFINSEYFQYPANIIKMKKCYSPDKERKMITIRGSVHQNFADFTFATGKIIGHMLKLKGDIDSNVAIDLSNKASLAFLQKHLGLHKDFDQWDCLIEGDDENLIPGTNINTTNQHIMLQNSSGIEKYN
In short: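 Human plasma was preincubated with compound 10 min at 37 °C in 50 mM HEPES, 150 mM NaCl, pH 7.4. Reaction started with 20 nM [3H]PAF, run 10 min at 37 °C, then extracted with CHCl3/MeOH (2:1); radioactivity of the supernatant was counted.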

[1] = rabbit serum, read-out: inhibition, %
[2] = human serum, read-out: inhibition, %
[3] = read-out: inhibitory rate towards the rabbit serum derived Lp-PLA2 enzyme
[4] = read-out: inhibitory rate towards the human serum derived Lp-PLA2 enzyme

| inhibition at 0.1 µM (Lp-PLA2 in rabbit serum; [1]) | inhibition at 0.01 µM (Lp-PLA2 in human serum; [2]) | inhibition at 0.1 µM (Lp-PLA2 in human serum; human serum) | inhibition at 1 µM (Lp-PLA2 in rabbit serum; 1 μM, rabbit serum) | inhibition at 0.1 µM (Lp-PLA2 in rabbit serum; [3]) | inhibition at 0.01 µM (Lp-PLA2 in human serum; [4]) | SMILES |
| --- | --- | --- | --- | --- | --- | --- |
| 87.1% | 75% | 89% | 97.2% |  |  | CN(C)Cc1cnc(Cn2c(SCc3ccc(F)cc3)nc(=O)c3c2CCC3)n1Cc1ccc(-c2ccc(C(F)(F)F)cc2)cc1 [Example 46, 1-((5-((dimethylamino)methyl)-1-((4′-(trifluoromethyl)biphenyl-4-yl)methyl)-1H-imidazol-2-yl)methyl)-2-(4-fluorobenzylthio)-6,7-dihydro-1H-cyclopenta[d]pyrimidin-4(5H)-one] |
| 78.6% | 67% | 92% |  |  |  | O=c1nc(SCc2ccc(F)cc2)n(Cc2ncc(CN3CCCC3)n2Cc2ccc(-c3ccc(C(F)(F)F)cc3)cc2)c2c1CCC2 [Example 43, 2-(4-fluorobenzylthio)-1-((5-(pyrrolidin-1-ylmethyl)-1-((4′-(trifluoromethyl)biphenyl-4-yl)methyl)-1H-imidazol-2-yl)methyl)-6,7-dihydro-1H-cyclopenta[d]pyrimidin-4(5H)-one] |
| 63% | 56% | 87% |  |  |  | O=C1NCCN1Cc1nnc(Cn2c(SCc3ccc(F)cc3)nc(=O)c3c2CCC3)n1Cc1ccc(-c2ccc(C(F)(F)F)cc2)cc1 [Example 112, 2-(4-fluorobenzylthio)-1-((5-((2-oxoimidazolidin-1-yl)methyl)-4-((4′-(trifluoromethyl)biphenyl-4-yl)methyl)-4H-1,2,4-triazol-3-yl)methyl)-6,7-dihydro-1H-cyclopenta[d]pyrimidin-4(5H)-one] |
| 87% | 56% | 90% |  |  |  | O=c1nc(SCc2ccc(F)cc2)n(Cc2ncc(CN3CCN(Cc4ccccc4)CC3)n2Cc2ccc(-c3ccc(C(F)(F)F)cc3)cc2)c2c1CCC2 [Example 45, 1-((5-((4-benzylpiperazin-1-yl)methyl)-1-((4′-(trifluoromethyl)biphenyl-4-yl)methyl)-1H-imidazol-2-yl)methyl)-2-(4-fluorobenzylthio)-6,7-dihydro-1H-cyclopenta[d]pyrimidin-4(5H)-one] |
| 78.9% | 73% | 93% |  |  |  | Cc1nnc(Cn2c(SCc3ccc(F)cc3)nc(=O)c3c2CCC3)n1Cc1ccc(-c2ccc(C(F)(F)F)cc2)cc1 [Example 64, 2-(4-fluorobenzylthio)-1-((5-methyl-4-((4′-(trifluoromethyl)biphenyl-4-yl)methyl)-4H-1,2,4-triazol-3-yl)methyl)-6,7-dihydro-1H-cyclopenta[d]pyrimidin-4(5H)-one] |
| 88% | 88% | 98% |  |  |  | CCCc1nnc(Cn2c(SCc3ccc(F)cc3)nc(=O)c3c2CCC3)n1Cc1ccc(-c2ccc(C(F)(F)F)cc2)cc1 [Example 66, 2-(4-fluorobenzylthio)-1-((5-propyl-4-((4′-(trifluoromethyl)biphenyl-4-yl)methyl)-4H-1,2,4-triazol-3-yl)methyl)-6,7-dihydro-1H-cyclopenta[d]pyrimidin-4(5H)-one] |

Further lines, the compound ahead of its results:

| SMILES | inhibition at 0.1 µM (Lp-PLA2 in rabbit serum; [1]) | inhibition at 0.01 µM (Lp-PLA2 in human serum; [2]) | inhibition at 0.1 µM (Lp-PLA2 in human serum; human serum) | inhibition at 1 µM (Lp-PLA2 in rabbit serum; 1 μM, rabbit serum) | inhibition at 0.1 µM (Lp-PLA2 in rabbit serum; [3]) | inhibition at 0.01 µM (Lp-PLA2 in human serum; [4]) |
| --- | --- | --- | --- | --- | --- | --- |
| COC(=O)C(C)(C)N1CCN(Cc2nnc(Cn3c(SCc4ccc(F)cc4)nc(=O)c4c3CCC4)n2Cc2ccc(-c3ccc(C(F)(F)F)cc3)cc2)CC1 [Example 88, methyl-2-(4-((5-((2-(4-fluorobenzylthio)-4-oxo-4,5,6,7-tetrahydro-1H-cyclopenta[d]pyrimidin-1-yl)methyl)-4-((4′-(trifluoromethyl)biphenyl-4-yl)methyl)-4H-1,2,4-triazol-3-yl)methyl)piperazin-1-yl)-2-methylpropanoate] | 67% | 59% | 91% |  |  |  |
| CCN(CC)CCN(CC(=O)O)Cc1nnc(Cn2c(SCc3ccc(F)cc3)nc(=O)c3c2CCC3)n1Cc1ccc(-c2ccc(C(F)(F)F)cc2)cc1 [Example 135, 2-((2-(diethylamino)ethyl)((3-((2-(4-fluorobenzylthio)-4-oxo-4,5,6,7-tetrahydro-1H-cyclopenta[d]pyrimidin-1-yl)methyl)-4-((4′-(trifluoromethyl)biphenyl-4-yl)methyl)-4H-1,2,4-triazol-5-yl)methyl)amino)acetic acid] | 83% | 66% |  |  |  |  |
| O=c1nc(SCc2ccc(F)cc2)n(Cc2nnc(COCCO)n2Cc2ccc(-c3ccc(C(F)(F)F)cc3)cc2)c2c1CCC2 [Example 123, 2-(4-fluorobenzylthio)-1-((5-((2-hydroxyethoxy)methyl)-4-((4′-(trifluoromethyl)biphenyl-4-yl)methyl)-4H-1,2,4-triazol-3-yl)methyl)-6,7-dihydro-1H-cyclopenta[d]pyrimidin-4(5H)-one] | 88% | 76% |  |  |  |  |
| CN(Cc1ccc(F)cc1)Cc1nnc(Cn2c(SCc3ccc(F)cc3)nc(=O)c3c2CCC3)n1Cc1ccc(-c2ccc(C(F)(F)F)cc2)cc1 [Example 81, 1-((5-(((4-fluorobenzyl)(methyl)amino)methyl)-4-((4′-(trifluoromethyl)biphenyl-4-yl)methyl)-4H-1,2,4-triazol-3-yl)methyl)-2-(4-fluorobenzylthio)-6,7-dihydro-1H-cyclopenta[d]pyrimidin-4(5H)-one] | 90% | 93% | 98% |  | > 90% | > 80% |
| CC(=O)NCc1nnc(Cn2c(SCc3ccc(F)cc3)nc(=O)c3c2CCC3)n1Cc1ccc(-c2ccc(C(F)(F)F)cc2)cc1 [Example 110, N-((5-((2-(4-fluorobenzylthio)-4-oxo-4,5,6,7-tetrahydro-1H-cyclopenta[d]pyrimidin-1-yl)methyl)-4-((4′-(trifluoromethyl)biphenyl-4-yl)methyl)-4H-1,2,4-triazol-3-yl)methyl)acetamide] | 67% | 67% | 83% |  |  |  |
| CCN1CCCC1CNCc1nnc(Cn2c(SCc3ccc(F)cc3)nc(=O)c3c2CCC3)n1Cc1ccc(-c2ccc(C(F)(F)F)cc2)cc1 (racemic) [Example 83, (±)-1-((5-(((1-ethylpyrrolidin-2-yl)methylamino)methyl)-4-((4′-(trifluoromethyl)biphenyl-4-yl)methyl)-4H-1,2,4-triazol-3-yl)methyl)-2-(4-fluorobenzylthio)-6,7-dihydro-1H-cyclopenta[d]pyrimidin-4(5H)-one] | 93% | 81% | 95% |  | > 90% | > 80% |
| C[N+](C)(Cc1ccc(F)cc1)Cc1nnc(Cn2c(SCc3ccc(F)cc3)nc(=O)c3c2CCC3)n1Cc1ccc(-c2ccc(C(F)(F)F)cc2)cc1 [Example 76, N-(4-fluorobenzyl)-1-(5-((2-(4-fluorobenzylthio)-4-oxo-4,5,6,7-tetrahydro-1H-cyclopenta[d]pyrimidin-1-yl)methyl)-4-((4′-(trifluoromethyl)biphenyl-4-yl)methyl)-4 H-1,2,4-triazol-3-yl)-N,N-dimethylmethanaminium bromide] | 97% | 100% | 100% |  | > 90% | > 80% |
| CN(C)CCN(C)Cc1onc(Cn2c(SCc3ccc(F)cc3)nc(=O)c3c2CCC3)c1Cc1ccc(-c2ccc(C(F)(F)F)cc2)cc1 [Example 158, 1-((5-(((2-(dimethylamino)ethyl)(methyl)amino)methyl)-4-((4′-(trifluoromethyl)biphenyl-4-yl)methyl)isoxazol-3-yl)methyl)-2-(4-fluorobenzylthio)-6,7-dihydro-1H-cyclopenta[d]pyrimidin-4(5H)-one] | 98% | 98% |  |  | > 90% | > 80% |
| O=c1nc(SCc2ccc(F)cc2)n(Cc2nnc(CSCc3ccc(F)cc3)n2Cc2ccc(-c3ccc(C(F)(F)F)cc3)cc2)c2c1CCC2 [Example 115, 2-(4-fluorobenzylthio)-1-((5-((4-fluorobenzylthio)methyl)-4-((4′-(trifluoromethyl)biphenyl-4-yl)methyl)-4H-1,2,4-triazol-3-yl)methyl)-6,7-dihydro-1H-cyclopenta[d]pyrimidin-4(5H)-one] | 78% | 77% |  |  |  |  |
